Results reported in patent US8802678B2, “Carbonylated (aza) cyclohexanes as dopamine D3 receptor ligands” (Bioprojet, priority 2006, dated 2014).

SMILES	melting point [°C]
CC(C)(C)c1cccc(N2CCN(CC[C@H]3CC[C@H](NC(=O)CC#N)CC3)CC2)c1 [Example 169, N-(4-{2-[4-(3-tert-Butylphenyl)piperazin-1-yl]ethyl}cyclohexyl)-2-cyanoacetamide]	150
CCOc1cccc(N2CCN(CC[C@H]3CC[C@H](NC(=O)CC#N)CC3)CC2)c1 [Example 170, 2-Cyano-N-(4-{2-[4-(3-ethoxyphenyl)piperazin-1-yl]ethyl}cyclohexyl)acetamide]	157 to 159
N#CCC(=O)N[C@H]1CC[C@H](CCN2CCN(c3cc(Cl)ccc3F)CC2)CC1 [Example 171, N-(4-{2-[4-(5-Chloro-2-fluorophenyl)piperazin-1-yl]ethyl}cyclohexyl)-2-cyanoacetamide]	200
N#CCCCC(=O)N[C@H]1CC[C@H](CCN2CCN(c3cccc(C(F)(F)F)c3F)CC2)CC1 [Example 172, 4-Cyano-N-(4-{2-[4-(2-fluoro-3-trifluoromethylphenyl)piperazin-1-yl]ethyl}cyclohexyl)butanamide]	158 to 162
COc1ccc(Cl)cc1N1CCN(CC[C@H]2CC[C@H](NC(=O)CC#N)CC2)CC1 [Example 176, N-(4-{2-[4-(5-Chloro-2-methoxyphenyl)piperazin-1-yl]ethyl}cyclohexyl)-2-cyanoacetamide]	180
CC(C)(C)c1nc(N2CCN(CC[C@H]3CC[C@H](NC(=O)CC#N)CC3)CC2)cc(C(F)(F)F)n1 [Example 177, N-(4-{2-[4-(2-tert-Butyl-6-trifluoromethylpyrimidin-4-yl)piperazin-1-yl]ethyl}cyclohexyl)-2-cyanoacetamide trans/cis 85/15]	188
COc1cc(OC)cc(N2CCN(CC[C@H]3CC[C@H](NC(=O)CC#N)CC3)CC2)c1 [Example 180, 2-Cyano-N-(4-{2-[4-(3,5-dimethoxyphenyl)piperazin-1-yl]ethyl}cyclohexyl)acetamide]	181 to 183
CSc1cccc(N2CCN(CC[C@H]3CC[C@H](NC(=O)CC#N)CC3)CC2)c1 [Example 182, 2-Cyano-N-(4-{2-[4-(3-methylsulfanylphenyl)piperazin-1-yl]ethyl}cyclohexyl)acetamide]	132
N#CCC(=O)N[C@H]1CC[C@H](CCN2CCN(c3cccc4ccccc34)CC2)CC1 [Example 183, 2-Cyano-N-{4-[2-(4-naphthalen-1-ylpiperazin-1-yl)ethyl]cyclohexyl}acetamide]	174
N#CCC(=O)N[C@H]1CC[C@H](CCN2CCN(c3cccc(Cl)c3F)CC2)CC1 [Example 185, N-(4-{2-[4-(3-Chloro-2-fluorophenyl)piperazin-1-yl]ethyl}cyclohexyl)-2-cyanoacetamide]	183
NC(=O)CCC(=O)N[C@H]1CC[C@H](CCN2CCN(c3ccccc3F)CC2)CC1 [Example 186, N-(4-{2-[4-(2-Fluorophenyl)piperazin-1-yl]ethyl}cyclohexyl)succinamide]	255
Cc1ccc(F)c(N2CCN(CC[C@H]3CC[C@H](NC(=O)CC#N)CC3)CC2)c1 [Example 192, 2-Cyano-N-(4-{2-[4-(2-fluoro-5-methylphenyl)piperazin-1-yl]ethyl}cyclohexyl)acetamide]	178
COc1ccc(C)cc1N1CCN(CC[C@H]2CC[C@H](NC(=O)CC#N)CC2)CC1 [Example 195, 2-Cyano-N-(4-{2-[4-(2-methoxy-5-methylphenyl)piperazin-1-yl]ethyl}cyclohexyl)acetamide]	178
COc1ccc(C(C)(C)C)cc1N1CCN(CC[C@H]2CC[C@H](NC(=O)CC#N)CC2)CC1 [Example 197, N-(4-{2-[4-(5-tert-Butyl-2-methoxyphenyl)piperazin-1-yl]ethyl}cyclohexyl)-2-cyanoacetamide]	163
COc1ccc(C)c(N2CCN(CC[C@H]3CC[C@H](NC(=O)CC#N)CC3)CC2)c1 [Example 198, 2-Cyano-N-(4-{2-[4-(5-methoxy-2-methylphenyl)piperazin-1-yl]ethyl}cyclohexyl)acetamide]	178 to 180
CC(=O)CCCC(=O)N[C@H]1CC[C@H](CCN2CCN(c3cccc(C(F)(F)F)c3)CC2)CC1 [Example 202, 5-Oxo-hexanoic acid (4-{2-[4-(3-trifluoromethylphenyl)piperazin-1-yl]ethyl}cyclohexyl)amide]	158
N#CCCCC(=O)N[C@H]1CC[C@H](CCN2CCN(c3cccc(Cl)c3F)CC2)CC1 [Example 205, N-(4-{2-[4-(3-Chloro-2-fluorophenyl)piperazin-1-yl]ethyl}cyclohexyl)-4-cyanobutanamide]	186
N#CCCCC(=O)N[C@H]1CC[C@H](CCN2CCN(c3cccc(OC(F)(F)F)c3)CC2)CC1 [Example 206, 4-Cyano-N-(4-{2-[4-(3-trifluoromethoxyphenyl)piperazin-1-yl]ethyl}cyclohexyl)butanamide]	133 to 134
N#CCC(=O)N[C@H]1CC[C@H](CCN2CCN(c3cccc(F)c3C#N)CC2)CC1 [Example 208]	187 to 189
N#CCCCC(=O)N[C@H]1CC[C@H](CCN2CCN(c3cccc4c3CCCC4)CC2)CC1 [Example 209, 4-Cyano-N-(4-{2-[4-(5,6,7,8-tetrahydronaphthalen-1-yl)piperazin-1-yl]ethyl}cyclohexyl)butanamide]	148
N#CCCCC(=O)N[C@H]1CC[C@H](CCN2CCN(c3cccc(Cl)c3Cl)CC2)CC1 [Example 210, 4-Cyano-N-(4-{2-[4-(2,3-dichlorophenyl)piperazin-1-yl]ethyl}cyclohexyl)butanamide]	192

Further lines, results first:

melting point [°C]	SMILES
216	N#CCC(=O)N[C@H]1CC[C@H](CCN2CCN(c3csc4cc(C(F)(F)F)ccc34)CC2)CC1 [Example 173, 2-Cyano-N-(4-{2-[4-(6-trifluoromethylbenzo[b]thiophen-3-yl)piperazin-1-yl]ethyl}cyclohexyl)acetamide]
197	N#CCC(=O)N[C@H]1CC[C@H](CCN2CCN(c3cc(C(F)(F)F)ccc3F)CC2)CC1 [Example 174, 2-Cyano-N-(4-{2-[4-(2-fluoro-5-trifluoromethylphenyl)piperazin-1-yl]ethyl}cyclohexyl)acetamide]
181	Cc1c(N2CCN(CC[C@H]3CC[C@H](NC(=O)CC#N)CC3)CC2)cccc1C(F)(F)F [Example 178, 2-Cyano-N-(4-{2-[4-(2-methyl-3-trifluoromethylphenyl)piperazin-1-yl]ethyl}cyclohexyl)acetamide]
177 to 178	Cc1ccc(Cl)cc1N1CCN(CC[C@H]2CC[C@H](NC(=O)CC(F)(F)F)CC2)CC1 [Example 179, N-(4-{2-[4-(5-Chloro-2-methylphenyl)piperazin-1-yl]ethyl}cyclohexyl)-3,3,3-trifluoropropanamide]
181 to 183	N#CCC(=O)N[C@H]1CC[C@H](CCN2CCN(c3cc(F)cc(Cl)c3)CC2)CC1 [Example 181, N-(4-{2-[4-(3-Chloro-5-fluorophenyl)piperazin-1-yl]ethyl}cyclohexyl)-2-cyanoacetamide]
166	N#CCCCC(=O)N[C@H]1CC[C@H](CCN2CCN(c3cc(C(F)(F)F)cc(C(F)(F)F)c3)CC2)CC1 [Example 184, N-(4-{2-[4-(3,5-Bistrifluoromethylphenyl)piperazin-1-yl]ethyl}cyclohexyl)-4-cyanobutanamide]
185	O=C(CC(F)(F)F)N[C@H]1CC[C@H](CCN2CCN(c3ccccc3)CC2)CC1 [Example 188, 3,3,3-Trifluoro-N-{4-[2-(4-phenylpiperazin-1-yl)ethyl]cyclohexyl}propanamide]
203 to 204	N#CCC(=O)N[C@H]1CC[C@H](CCN2CCN(c3cc(C(F)(F)F)ccc3Cl)CC2)CC1 [Example 189, N-(4-{2-[4-(2-Chloro-5-trifluoromethylphenyl)piperazin-1-yl]ethyl}cyclohexyl)-2-cyanoacetamide]
237 to 240	Cc1ccc(Cl)cc1N1CCN(CC[C@H]2CC[C@H](NC(=O)CCC(N)=O)CC2)CC1 [Example 190, N-(4-{2-[4-(5-Chloro-2-methylphenyl)piperazin-1-yl]ethyl}cyclohexyl)succinamide]
159	CC(=O)CCC(=O)N[C@H]1CC[C@H](CCN2CCN(c3cccc(C(F)(F)F)c3)CC2)CC1 [Example 191, 4-Oxo-pentanoic acid (4-{2-[4-(3-trifluoromethylphenyl)piperazin-1-yl]ethyl}cyclohexyl)amide]
165	COc1ccc(Cl)c(N2CCN(CC[C@H]3CC[C@H](NC(=O)CC#N)CC3)CC2)c1 [Example 193, N-(4-{2-[4-(2-Chloro-5-methoxyphenyl)piperazin-1-yl]ethyl}cyclohexyl)-2-cyanoacetamide]
146	CSc1ccccc1N1CCN(CC[C@H]2CC[C@H](NC(=O)CC#N)CC2)CC1 [Example 194, 2-Cyano-N-(4-{2-[4-(2-methylsulfanylphenyl)piperazin-1-yl]ethyl}cyclohexyl)acetamide]
159	Cc1ccc(F)cc1N1CCN(CC[C@H]2CC[C@H](NC(=O)CC#N)CC2)CC1 [Example 196, 2-Cyano-N-(4-{2-[4-(5-fluoro-2-methylphenyl)piperazin-1-yl]ethyl}cyclohexyl)acetamide]
164	N#CCC(=O)N[C@H]1CC[C@H](CCN2CCC(c3cc(C(F)(F)F)cc(C(F)(F)F)c3)CC2)CC1 [Example 200, N-(4-{2-[4-(3,5-Bis-trifluoro-methylphenyl)piperidin-1-yl]ethyl}cyclohexyl)-2-cyanoacetamide]
170	N#CCCCC(=O)N[C@H]1CC[C@H](CCN2CCN(c3ccccc3F)CC2)CC1 [Example 204, 4-Cyano-N-(4-{2-[4-(2-fluorophenyl)piperazin-1-yl]ethyl}cyclohexyl)butanamide]
138 to 139	N#CCCCC(=O)N[C@H]1CC[C@H](CCN2CCN(c3cc(C(F)(F)F)ccc3F)CC2)CC1 [Example 207, 4-Cyano-N-(4-{2-[4-(2-fluoro-5-trifluoromethylphenyl)piperazin-1-yl]ethyl}cyclohexyl)butanamide]
